US12552766B2, “Pesticidally active azole amide compounds” (SYNGENTA CROP PROTECTION AG, priority 2019, dated 2026)

Tests used:
Assay type in all cases: in vivo
[1] = test system: Plutella xylostella (Diamond Back Moth); test: Example B5: Plutella xylostella, artificial diet, 24-well; details: 192 h, application rate of 200 ppm, eggs, 8 days after infestation, read-out: control in at least one of the two categories (mortality or growth inhibition)
Description: 24-well microtiter plates with artificial diet were treated with aqueous test solutions prepared from 10′000 ppm DMSO stock solutions by pipetting. After drying, Plutella eggs were pipetted through a plastic stencil onto a gel blotting paper and the plate was closed with it. The samples were assessed for mortality and growth inhibition in comparison to untreated samples 8 days after infestation.

[2] = test system: Diabrotica Balteata (Corn Root Worm); test: Example B1: Diabrotica balteata, spray on maize sprouts; details: 96 h, application rate of 200 ppm, L2 larvae, 4 days after infestation, read-out: control in at least one of the two categories (mortality or growth inhibition)
Description: Maize sprouts placed onto an agar layer in 24-well microtiter plates were treated with aqueous test solutions prepared from 10′000 ppm DMSO stock solutions by spraying. After drying, the plates were infested with L2 larvae (6 to 10 per well). The samples were assessed for mortality and growth inhibition in comparison to untreated samples 4 days after infestation.

[3] = test system: Chilo suppressalis (Striped Rice Stemborer); test: Example B4: Chilo suppressalis, artificial diet; details: 144 h, application rate of 200 ppm, L2 larvae, 6 days after infestation, read-out: control in at least one of the three categories (mortality, anti-feedant effect, or growth inhibition)
Description: 24-well microtiter plates with artificial diet were treated with aqueous test solutions prepared from 10′000 ppm DMSO stock solutions by pipetting. After drying, the plates were infested with L2 larvae (6-8 per well). The samples were assessed for mortality, anti-feeding effect, and growth inhibition in comparison to untreated samples 6 days after infestation. Control of Chilo suppressalis by a test sample is given when at least one of the categories mortality, anti-feedant effect, and growth inhibition is higher than the untreated sample.

[4] = test system: Spodoptera littoralis (Egyptian Cotton Leaf Worm); test: Example B9: Spodoptera littoralis, spray on cotton leaf discs; details: foliar, 72 h, application rate of 200 ppm, L1 larvae, 3 days after infestation, read-out: control in at least one of the three categories (mortality, anti-feedant effect, or growth inhibition)
Description: Cotton leaf discs were placed onto agar in 24-well microtiter plates and sprayed with aqueous test solutions prepared from 10′000 ppm DMSO stock solutions. After drying the leaf discs were infested with five L1 larvae. The samples were assessed for mortality, anti-feeding effect, and growth inhibition in comparison to untreated samples 3 days after infestation. Control of Spodoptera littoralis by a test sample is given when at least one of the categories mortality, anti-feedant effect, and growth inhibition is higher than the untreated sample.

CC(NC(=O)c1cc(C(F)(F)F)cc(C(F)(F)F)c1)c1nc(Br)nn1-c1ncc(OC(F)F)cn1 (stereo not shown) [Compound P2, N-[1-[5-bromo-2-[5-(difluoromethoxy)pyrimidin-2-yl]-1,2,4-triazol-3-yl]ethyl]-3,5-bis(trifluoromethyl) benzamide]
≥ 80%: percent control (mortality or growth inhibition) at 200 ppm [1] | percent control (mortality or growth inhibition) at 200 ppm [2] | percent control (mortality, anti-feedant effect or growth inhibition) at 200 ppm [3] | percent control (mortality, anti-feedant effect or growth inhibition) at 200 ppm [4]

CC(NC(=O)c1cc(SC(F)(F)F)cc(C(F)(F)F)c1)c1nc(Br)nn1-c1ccc(C#N)cn1 (stereo not shown) [Compound P5, N-[1-[5-bromo-2-(5-cyano-2-pyridyl)-1,2,4-triazol-3-yl]ethyl]-3-(trifluoromethyl)-5-(trifluoromethylsulfanyl)benzamide]
≥ 80%: percent control (mortality or growth inhibition) at 200 ppm [1] | percent control (mortality or growth inhibition) at 200 ppm [2] | percent control (mortality, anti-feedant effect or growth inhibition) at 200 ppm [3] | percent control (mortality, anti-feedant effect or growth inhibition) at 200 ppm [4]

CC(NC(=O)c1cc(C(F)(F)F)cc(C(F)(F)F)c1)c1nc(Br)nn1-c1ccc(OC(F)F)cn1 (stereo not shown) [Compound P6, N-[1-[5-bromo-2-[5-(difluoromethoxy)-2-pyridyl]-1,2,4-triazol-3-yl]ethyl]-3,5-bis(trifluoromethyl) benzamide]
≥ 80%: percent control (mortality or growth inhibition) at 200 ppm [1] | percent control (mortality or growth inhibition) at 200 ppm [2] | percent control (mortality, anti-feedant effect or growth inhibition) at 200 ppm [3] | percent control (mortality, anti-feedant effect or growth inhibition) at 200 ppm [4]

CC(NC(=O)c1cc(OC(F)F)cc(C(F)(F)F)c1)c1nc(Br)nn1-c1ccc(OC(F)F)cn1 (stereo not shown) [Compound P7, N-[1-[5-bromo-2-[5-(difluoromethoxy)-2-pyridyl]-1,2,4-triazol-3-yl]ethyl]-3-(difluoromethoxy)-5-(trifluoromethyl) benzamide]
≥ 80%: percent control (mortality or growth inhibition) at 200 ppm [1] | percent control (mortality or growth inhibition) at 200 ppm [2] | percent control (mortality, anti-feedant effect or growth inhibition) at 200 ppm [3] | percent control (mortality, anti-feedant effect or growth inhibition) at 200 ppm [4]

CC(NC(=O)c1cc(OC(F)(F)F)cc(C(F)(F)F)c1)c1nc(Br)nn1-c1ccc(C#N)cn1 (stereo not shown) [Compound P9, N-[1-[5-bromo-2-(5-cyano-2-pyridyl)-1,2,4-triazol-3-yl]ethyl]-3-(trifluoromethoxy)-5-(trifluoromethyl)benzamide]
≥ 80%: percent control (mortality or growth inhibition) at 200 ppm [1] | percent control (mortality or growth inhibition) at 200 ppm [2] | percent control (mortality, anti-feedant effect or growth inhibition) at 200 ppm [3] | percent control (mortality, anti-feedant effect or growth inhibition) at 200 ppm [4]

CC(NC(=O)c1cc(OC(F)F)cc(C(F)(F)F)c1)c1nc(Br)nn1-c1ccc(C#N)cn1 (stereo not shown) [Compound P10, N-[1-[5-bromo-2-(5-cyano-2-pyridyl)-1,2,4-triazol-3-yl]ethyl]-3-(difluoromethoxy)-5-(trifluoromethyl)benzamide]
≥ 80%: percent control (mortality or growth inhibition) at 200 ppm [1] | percent control (mortality or growth inhibition) at 200 ppm [2] | percent control (mortality, anti-feedant effect or growth inhibition) at 200 ppm [3] | percent control (mortality, anti-feedant effect or growth inhibition) at 200 ppm [4]

CC(NC(=O)c1cc(C(F)(F)F)cc(C(F)(F)F)c1)c1nc(Br)nn1-c1ccc(C#N)cn1 (stereo not shown) [Compound P11, N-[1-[5-bromo-2-(5-cyano-2-pyridyl)-1,2,4-triazol-3-yl]ethyl]-3,5-bis(trifluoromethyl)benzamide]
≥ 80%: percent control (mortality or growth inhibition) at 200 ppm [1] | percent control (mortality or growth inhibition) at 200 ppm [2] | percent control (mortality, anti-feedant effect or growth inhibition) at 200 ppm [3] | percent control (mortality, anti-feedant effect or growth inhibition) at 200 ppm [4]

CC(NC(=O)c1cc(OCC(F)(F)F)cc(C(F)(F)F)c1)c1nc(Br)nn1-c1ccc(OC(F)F)cn1 (stereo not shown) [Compound P14, N-[1-[5-bromo-2-[5-(difluoromethoxy)-2-pyridyl]-1,2,4-triazol-3-yl]ethyl]-3-(2,2,2-trifluoroethoxy)-5-(trifluoromethyl) benzamide]
≥ 80%: percent control (mortality or growth inhibition) at 200 ppm [1] | percent control (mortality or growth inhibition) at 200 ppm [2] | percent control (mortality, anti-feedant effect or growth inhibition) at 200 ppm [3] | percent control (mortality, anti-feedant effect or growth inhibition) at 200 ppm [4]

CC(NC(=O)c1cc(OC(F)(F)F)cc(C(F)(F)F)c1)c1nc(Br)nn1-c1ncc(OCC(F)F)cn1 (stereo not shown) [Compound P22, N-[1-[5-bromo-2-[5-(2,2-difluoroethoxy)pyrimidin-2-yl]-1,2,4-triazol-3-yl]ethyl]-3-(trifluoromethoxy)-5-(trifluoromethyl) benzamide]
≥ 80%: percent control (mortality or growth inhibition) at 200 ppm [1] | percent control (mortality or growth inhibition) at 200 ppm [2] | percent control (mortality, anti-feedant effect or growth inhibition) at 200 ppm [3] | percent control (mortality, anti-feedant effect or growth inhibition) at 200 ppm [4]

CC(NC(=O)c1cc(SC(F)(F)F)cc(C(F)(F)F)c1)c1nc(Br)nn1-c1ncc(OCC(F)F)cn1 (stereo not shown) [Compound P24, N-[1-[5-bromo-2-[5-(2,2-difluoroethoxy)pyrimidin-2-yl]-1,2,4-triazol-3-yl]ethyl]-3-(trifluoromethyl)-5-(trifluoromethyl-sulfanyl)benzamide]
≥ 80%: percent control (mortality or growth inhibition) at 200 ppm [1] | percent control (mortality or growth inhibition) at 200 ppm [2] | percent control (mortality, anti-feedant effect or growth inhibition) at 200 ppm [3] | percent control (mortality, anti-feedant effect or growth inhibition) at 200 ppm [4]

CC(NC(=O)c1cc(C(F)(F)F)cc(C(F)(F)F)c1)c1nc(Br)nn1-c1ncc(OCC(F)F)cn1 (stereo not shown) [Compound P25, N-[1-[5-bromo-2-[5-(2,2-difluoroethoxy)pyrimidin-2-yl]-1,2,4-triazol-3-yl]ethyl]-3,5-bis(trifluoromethyl) benzamide]
≥ 80%: percent control (mortality or growth inhibition) at 200 ppm [1] | percent control (mortality or growth inhibition) at 200 ppm [2] | percent control (mortality, anti-feedant effect or growth inhibition) at 200 ppm [3] | percent control (mortality, anti-feedant effect or growth inhibition) at 200 ppm [4]

CC(NC(=O)c1cc(C(F)(F)F)cc(C(F)(F)F)c1)c1nc(-c2ncccn2)nn1-c1ccc(C#N)cn1 (stereo not shown) [Compound P32, N-[1-[2-(5-cyano-2-pyridyl)-5-pyrimidin-2-yl-1,2,4-triazol-3-yl]ethyl]-3,5-bis(trifluoromethyl) benzamide]
≥ 80%: percent control (mortality or growth inhibition) at 200 ppm [1] | percent control (mortality or growth inhibition) at 200 ppm [2] | percent control (mortality, anti-feedant effect or growth inhibition) at 200 ppm [3] | percent control (mortality, anti-feedant effect or growth inhibition) at 200 ppm [4]

CC(NC(=O)c1cc(OCC(F)F)cc(C(F)(F)F)c1)c1nc(Br)nn1-c1ccc(C#N)cn1 (stereo not shown) [Compound P33, N-[1-[5-bromo-2-(5-cyano-2-pyridyl)-1,2,4-triazol-3-yl]ethyl]-3-(2,2-difluoroethoxy)-5-(trifluoromethyl)benzamide]
≥ 80%: percent control (mortality or growth inhibition) at 200 ppm [1] | percent control (mortality, anti-feedant effect or growth inhibition) at 200 ppm [3] | percent control (mortality, anti-feedant effect or growth inhibition) at 200 ppm [4]

CC(NC(=O)c1cc(Cl)cc(C(F)(F)F)c1)c1nc(Br)nn1-c1ccc(OCC(F)(F)F)cn1 (stereo not shown) [Compound P37, N-[1-[5-bromo-2-[5-(2,2,2-trifluoroethoxy)-2-pyridyl]-1,2,4-triazol-3-yl]ethyl]-3-chloro-5-(trifluoromethyl) benzamide]
≥ 80%: percent control (mortality or growth inhibition) at 200 ppm [1] | percent control (mortality, anti-feedant effect or growth inhibition) at 200 ppm [3] | percent control (mortality, anti-feedant effect or growth inhibition) at 200 ppm [4]

CC(NC(=O)c1cc(OCC(F)(F)F)cc(C(F)(F)F)c1)c1nc(Br)nn1-c1ccc(OCC(F)(F)F)cn1 (stereo not shown) [Compound P39, N-[1-[5-bromo-2-[5-(2,2,2-trifluoroethoxy)-2-pyridyl]-1,2,4-triazol-3-yl]ethyl]-3-(2,2,2-trifluoroethoxy)-5-(trifluoromethyl) benzamide]
≥ 80%: percent control (mortality or growth inhibition) at 200 ppm [1] | percent control (mortality, anti-feedant effect or growth inhibition) at 200 ppm [4]

CC(NC(=O)c1cc(C(F)(F)F)cc(C(F)(F)F)c1)c1nc(C#N)nn1-c1ccc(C#N)cn1 (stereo not shown) [Compound P48, N-[1-[5-cyano-2-(5-cyano-2-pyridyl)-1,2,4-triazol-3-yl]ethyl]-3,5-bis(trifluoromethyl) benzamide]
≥ 80%: percent control (mortality or growth inhibition) at 200 ppm [2] | percent control (mortality, anti-feedant effect or growth inhibition) at 200 ppm [3] | percent control (mortality, anti-feedant effect or growth inhibition) at 200 ppm [4]

CC(NC(=O)c1cc(Br)cc(C(F)(F)F)c1)c1nc(Br)nn1-c1ccc(OCC(F)(F)F)cn1 (stereo not shown) [Compound P50, 3-bromo-N-[1-[5-bromo-2-[5-(2,2,2-trifluoroethoxy)-2-pyridyl]-1,2,4-triazol-3-yl]ethyl]-5-(trifluoromethyl) benzamide]
≥ 80%: percent control (mortality or growth inhibition) at 200 ppm [1] | percent control (mortality, anti-feedant effect or growth inhibition) at 200 ppm [3]
